From patent US20250367173A1, “ECTONUCLEOTIDE PYROPHOSPHATASE-PHOSPHODIESTERASE-1 INHIBITORS AND PHARMACEUTICAL COMPOSITIONS COMPRISING THE SAME” (LigaChem Biosciences Inc., priority 2022, published 2025)

How the values were obtained:
[1] = molecular target: T1, ENPP-1 (Homo sapiens, UniProt P22413); assay: ENPP-1 enzyme assay with cGAMP substrate; format: biochemical; conditions: 200 pM ENPP-1, 10 μM substrate 2′3′-cGAMP, pH 7.4, 37° C., 30 minutes, Transcreener AMP2/GMP2 kit; average IC50
T1 construct: purchased Biovendor RD172124100
T1 sequence (P22413 1-925): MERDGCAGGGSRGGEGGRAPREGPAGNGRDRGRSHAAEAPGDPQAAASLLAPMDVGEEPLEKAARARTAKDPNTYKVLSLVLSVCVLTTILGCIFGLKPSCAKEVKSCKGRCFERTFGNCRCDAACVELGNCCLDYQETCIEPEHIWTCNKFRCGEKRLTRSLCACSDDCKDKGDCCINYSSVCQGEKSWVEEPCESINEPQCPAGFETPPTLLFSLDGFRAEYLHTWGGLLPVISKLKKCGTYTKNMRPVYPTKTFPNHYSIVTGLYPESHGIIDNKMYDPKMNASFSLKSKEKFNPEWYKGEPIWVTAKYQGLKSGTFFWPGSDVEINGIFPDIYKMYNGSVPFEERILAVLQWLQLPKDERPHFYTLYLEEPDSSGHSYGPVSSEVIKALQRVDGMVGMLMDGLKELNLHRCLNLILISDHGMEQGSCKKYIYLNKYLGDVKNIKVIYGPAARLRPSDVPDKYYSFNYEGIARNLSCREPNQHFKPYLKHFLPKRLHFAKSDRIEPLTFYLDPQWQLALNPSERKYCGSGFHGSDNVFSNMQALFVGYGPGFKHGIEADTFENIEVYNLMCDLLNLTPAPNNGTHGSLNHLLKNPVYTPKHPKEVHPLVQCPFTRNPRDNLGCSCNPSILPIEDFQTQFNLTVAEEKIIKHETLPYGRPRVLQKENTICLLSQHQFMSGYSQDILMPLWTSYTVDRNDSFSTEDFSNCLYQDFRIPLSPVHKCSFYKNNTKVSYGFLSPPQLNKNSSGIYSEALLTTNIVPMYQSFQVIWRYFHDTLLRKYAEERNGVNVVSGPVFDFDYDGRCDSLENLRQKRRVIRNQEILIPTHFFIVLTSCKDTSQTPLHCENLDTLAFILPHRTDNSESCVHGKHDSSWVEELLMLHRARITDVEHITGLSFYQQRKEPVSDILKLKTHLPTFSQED
Protocol: 2′3′-cGAMP is a natural substrate specifically hydrolyzed by ENPP-1, and produces 5′-adenosine monophosphate (AMP) and 5′-guanosine monophosphate (GMP). AMP and GMP produced from the reaction are monitored for ENPP-1 enzyme activity through an AMP^2/GMP^2 ENPP-1 Assay kit (Bellbrook Labs, catalog number 3015).
First, the reaction mixture contains 25 mM Tris-HCl (pH 7.4), 5 mM MgCl2, 0.01% Brij-35, and 1% DMSO. Serially diluted ENPP-1 inhibitors (test compound concentrations ranging from 10 μM to 0.5 nM) are reacted with 200 pM ENPP-1 (Biovendor, catalog number RD172124100) and 10 μM substrate 2′3′-cGAMP at 37° C. for 30 minutes. All assays include a DMSO control without ENPP-1 inhibitor that provides maximal AMP and GMP production. After 30 minutes of this reaction, AMP and GMP production is detected as a measure of ENPP-1 enzymatic activity using the Transcreener® AMP^2/GMP^2 ENPP-1 Assay kit. The detection reagent is a reagent containing 16 nM AMP^2/GMP^2 Antibody-Tb, 25 mM Tris-HCl and 60.1 nM AMP/GMP HiLyte647 Tracer, which is added by 5 μl, mixed well, and incubated at 25° C. for 2 hours.
(§1) The […] signal is measured using a SPARK Cyto plate reader (Tecan). Inhibition (%) is calculated using the following formula: (Max 615:665 ratio-615:665 ratio)/Max 615:665 ratio×100%. % residual ENPP-1 enzyme activity versus IC50 values for ENPP-1 inhibitor concentrations were determined by fitting inhibition curves using the 4-parameter method of GraphPad Prism® software [GraphPad version 9.3.1 for Windows, GraphPad Software, La Jolla California USA, www.graphpad.com].

[2] = molecular target: T1, ENPP-1; assay: ENPP-1 enzyme assay with pNP-TMP substrate; format: biochemical; conditions: 12.5 ng ENPP-1, 720 μM substrate pNP-TMP, pH 9.0, 37° C., 60 minutes, absorbance 405 nm; average IC50
Protocol: In order to measure the ENPP-1 inhibitory activity of the compounds according to the present disclosure, the following tests were performed.
ENPP-1 hydrolyzes a variety of substrates, including phosphodiester bonds of nucleotides and nucleotide sugars and pyrophosphate bonds of nucleotides and nucleotide sugars. p-Nitrophenyl 5′-thymidine monophosphate (p-Nph-5′-TMP) is an artificial substrate for 5′-adenosine monophosphate (AMP), which is hydrolyzed by the human recombinant ENPP-1 enzyme. In the above reaction, ENPP-1 enzymatic activity is monitored through the formation of yellow p-nitrophenolate, which absorbs at 405 nm.
First, the reaction mixture contains 100 mM Tris-HCl (pH 9.0), 150 mM NaCl, […], and 1% DMSO. Serially diluted ENPP-1 inhibitors (test compound concentrations ranging from 10 μM to 0.5 nM) are reacted with 12.5 ng of ENPP-1 (Biovendor, catalog number RD172124100) and 720 μM substrate pNP-TMP at 37° C. for 60 minutes. All assays include a DMSO control without ENPP-1 inhibitor that gives maximum absorbance.
as §1, with “After 60 minutes of this reaction, the” for “The”, “an Epoch™ Microplate Spectrophotometer (BioTek Instruments Inc.).” for “a SPARK Cyto plate reader (Tecan).”, “Sample OD405 nm/Max OD405 nm×100%.” for “(Max 615:665 ratio-615:665 ratio)/Max 615:665 ratio×100%.”

| Structure (SMILES) | IC50 [1] | IC50 [2] |
| --- | --- | --- |
| COc1ccc2c(c1)c1ncccc1n2Cc1ccc(P(=O)(O)O)cc1 [Compound 13, (4-((8-methoxy-5H-pyrido[3,2-b]indol-5-yl)methyl)phenyl)phosphonic acid] | < 1 µM | < 1 µM |
| COc1ccc2c(c1)c1ncccc1n2Cc1ccc(CP(=O)(O)O)cc1 [Compound 14, (4-((8-methoxy-5H-pyrido[3,2-b]indol-5-yl)methyl)benzyl)phosphonic acid] | < 1 µM | < 1 µM |
| COc1ccc2c(c1)c1ncccc1n2Cc1ccc(S(N)(=O)=O)cc1F [Compound 15, 3-fluoro-4-((8-methoxy-5H-pyrido[3,2-b]indol-5-yl)methyl)benzenesulfonamide] | < 1 µM | < 1 µM |
| COc1ccc2c(c1)c1ncccc1n2Cc1ccc(S(N)(=O)=O)cc1Cl [Compound 16, 3-chloro-4-((8-methoxy-5H-pyrido[3,2-b]indol-5-yl)methyl)benzenesulfonamide] | < 1 µM | < 1 µM |
| COc1ccc2c(c1)c1ncccc1n2Cc1ccc(S(C)(=N)=O)cc1F (stereo not shown) [Compound 17, (3-fluoro-4-((8-methoxy-5H-pyrido[3,2-b]indol-5-yl)methyl)phenyl)(imino)(methyl)-l6-sulfanone] | < 1 µM | < 1 µM |
| COc1ccc2c(c1)c1ncccc1n2Cc1ccc(S(C)(=N)=O)cc1C (stereo not shown) [Compound 18, imino (4-((8-methoxy-5H-pyrido[3,2-b]indol-5-yl)methyl)-3-methylphenyl)(methyl)-l6-sulfanone] | < 1 µM | < 1 µM |
| COc1ccc2c(c1)c1ncccc1n2Cc1ccc(S(C)(=N)=O)cc1OC (stereo not shown) [Compound 19, imino (3-methoxy-4-((8-methoxy-5H-pyrido[3,2-b]indol-5-yl)methyl)phenyl)(methyl)-l6-sulfanone] | < 1 µM | < 1 µM |
| COc1ccc2c(c1)c1ncccc1n2Cc1ccc(S(C)(=N)=O)c(F)c1 (stereo not shown) [Compound 20, (2-fluoro-4-((8-methoxy-5H-pyrido[3,2-b]indol-5-yl)methyl)phenyl)(imino)(methyl)-l6-sulfanone] | < 1 µM | < 1 µM |
| NS(=O)(=O)c1ccc(Cn2c3ccc(Cl)cc3c3ncccc32)cc1 [Compound 21, 4-((8-chloro-5H-pyrido[3,2-b]indol-5-yl)methyl)benzenesulfonamide] | < 1 µM | < 1 µM |
| NS(=O)(=O)c1ccc(Cn2c3ccc(OC(F)(F)F)cc3c3ncccc32)cc1 [Compound 22, 4-((8-(trifluoromethoxy)-5H-pyrido[3,2-b]indol-5-yl)methyl)benzenesulfonamide] | 1 to 10 µM | < 1 µM |
| Cc1ccc2c(c1)c1ncccc1n2Cc1ccc(S(C)(=N)=O)cc1 (stereo not shown) [Compound 23, imino(methyl) (4-((8-methyl-5H-pyrido[3,2-b]indol-5-yl)methyl)phenyl)-l6-sulfanone] | < 1 µM | < 1 µM |
| CCOc1ccc2c(c1)c1ncccc1n2Cc1ccc(S(C)(=N)=O)cc1 (stereo not shown) [Compound 24, (4-((8-ethoxy-5H-pyrido[3,2-b]indol-5-yl)methyl)phenyl)(imino)(methyl)-l6-sulfanone] | < 1 µM | 1 to 10 µM |
| COc1cc(F)c2c(c1)c1ncccc1n2Cc1ccc(S(N)(=O)=O)cc1 [Compound 25, 4-((6-fluoro-8-methoxy-5H-pyrido[3,2-b]indol-5-yl)methyl)benzenesulfonamide] | 1 to 10 µM | < 1 µM |
| COc1cc(C)c2c(c1)c1ncccc1n2Cc1ccc(S(N)(=O)=O)cc1 [Compound 26, 4-((8-methoxy-6-methyl-5H-pyrido[3,2-b]indol-5-yl)methyl)benzenesulfonamide] | < 1 µM | < 1 µM |
| COc1cc(Cl)c2c(c1)c1ncccc1n2Cc1ccc(S(N)(=O)=O)cc1 [Compound 27, 4-((6-chloro-8-methoxy-5H-pyrido[3,2-b]indol-5-yl)methyl)benzenesulfonamide] | 1 to 10 µM | < 1 µM |
| COc1cc2c3ncccc3n(Cc3ccc(S(N)(=O)=O)cc3)c2cc1OC [Compound 28, 4-((7,8-dimethoxy-5H-pyrido[3,2-b]indol-5-yl)methyl)benzenesulfonamide] | < 1 µM | < 1 µM |
| COc1cc2c3ncccc3n(Cc3ccc(S(N)(=O)=O)cc3)c2cc1F [Compound 29, 4-((7-fluoro-8-methoxy-5H-pyrido[3,2-b]indol-5-yl)methyl)benzenesulfonamide] | < 1 µM | < 1 µM |
| COc1cc2c3ncccc3n(Cc3ccc(S(C)(=N)=O)cc3F)c2cc1F (stereo not shown) [Compound 31, (3-fluoro-4-((7-fluoro-8-methoxy-5H-pyrido[3,2-b]indol-5-yl)methyl)phenyl)(imino)(methyl)-l6-sulfanone] | < 1 µM | < 1 µM |
| COc1cc2c(cc1F)c1ncccc1n2Cc1ccc(S(C)(=N)=O)cc1 (stereo not shown) [Compound 32, (4-((8-fluoro-7-methoxy-5H-pyrido[3,2-b]indol-5-yl)methyl)phenyl)(imino)(methyl)-l6-sulfanone] | < 1 µM | < 1 µM |
| COc1cnc2c(c1)c1c(n2Cc2ccc(S(N)(=O)=O)cc2)CNCC1 [Compound 34, 4-((3-methoxy-5,6,7,8-tetrahydro-9H-pyrrolo[2,3-b:5,4-c′]dipyridin-9-yl)methyl)benzene sulfonamide] | > 10 µM | > 10 µM |
| COc1ccc2c3c(n(Cc4ccc(S(N)(=O)=O)cc4)c2c1)CCNC3 [Compound 35, 4-((7-methoxy-1,2,3,4-tetrahydro-5H-pyrido[4,3-b]indol-5-yl)methyl)benzenesulfonamide] | 1 to 10 µM | < 1 µM |
| COc1ccc2c(c1)c1c(n2Cc2ccc(S(N)(=O)=O)cc2)CCNC1 [Compound 36, 4-((8-methoxy-1,2,3,4-tetrahydro-5H-pyrido[4,3-b]indol-5-yl)methyl)benzenesulfonamide] | > 10 µM | 1 to 10 µM |
| COc1ccc2c3c(n(Cc4ccc(S(N)(=O)=O)cc4)c2c1)CCCN3 [Compound 37, 4-((7-methoxy-1,2,3,4-tetrahydro-5H-pyrido[3,2-b]indol-5-yl)methyl)benzenesulfonamide] | > 10 µM | < 1 µM |
